Publication PMC6562672, “Dose-Dependent Sorafenib-Induced Immunosuppression Is Associated with Aberrant NFAT Activation and Expression of PD-1 in T Cells” (Cancers, 2019)
Read-outs that look alike come from different tables or passages of the source.

Columns and labels:
HCC [1] = assay: Tumor histology: H&E necrosis and CD3 immunohistochemistry; type: in vivo, woodchuck (Marmota monax)
Method: Tumor specimens were diagnosed as HCC based on the established classification of neoplastic liver lesions. After standard processing and embedding in paraffin, 4 μm sections were prepared, deparaffinized, stained with hematoxylin-eosin (H&E), studied with a Zeiss Axio Imager A1 microscope (Carl Zeiss, Oberkochen, Germany) by a pathologist blinded to the treatment arm. Morphometric study of areas of necrosis was compared to the size of the tumor sections by counting view fields at medium objective magnification. IHC staining with mouse anti-rat CD3 (BD Biosciences, San Jose, CA, USA) was performed on […] paraffin sections of posttreatment tumor tissues obtained after tumor reached over 2 cm. Images of at least 7 randomly selected fields (unit area of each field, 0.34 mm^2) were captured by observers blinded to sample identity. Identical exposure times and image settings were used within each experiment. Images were analyzed with ImageJ software (http://rsb.info.nih.gov/ij, Bethesda, MD, USA).

HCC [2] = assay: Efficacy against HCC in WHV-infected woodchucks (ultrasound); type: in vivo, woodchuck (Marmota monax); settings: for median time from first detection of tumor to 2 cm HCC: placebo 55 days; for median time to tumor development: long-term, placebo 295 days, p = 0.35
Description: Male and female eastern woodchucks (Marmota monax) from two different institutes were used. WHV-infected woodchucks from Cornell University (15) were used for a long-term efficacy study, and six woodchucks in a short-term efficacy study were bred at Roswell Park Comprehensive Cancer Institute Center. Woodchucks were infected at 3–5 days of age with dilute serum from standard infectious pools derived from WHV carriers. Pups were inoculated with diluted, pooled serum from WHV^+ animals. The inoculum was prepared from pooled serum of WHV^+ animals that is diluted aseptically 1:10 in PBS. In a biological safety cabinet, each pup is manually restrained and 100 microliters of inoculum is injected subcutaneously in the intrascapular region. Chronic infection was verified at approximately 3, 6, and 9 months of age by WHV viral titer status. Once the pups are confirmed WHV positive, they were monitored by ultrasound (Philips HDI 5000, Amsterdam, The Netherlands) to confirm the presence of HCC.
In total, 21 animals bearing one or more liver tumors were included in this study for 2 separate experiments. While receiving sorafenib or placebo, animals were monitored with ultrasound every 2 weeks for tumor development greater than 5 mm in diameter. […] Tumor volume was calculated using this formula: volume = shortest axis^2 × longest axis × 0.52.
All WHV carrier woodchucks were randomly divided into three groups such as placebo, low dose (2.5 mg/kg/day), and high dose (5.0 mg/kg/day) groups (n = 5 animals/group) in a long-term efficacy study based on clinical and preclinical studies. Also, a compartmental pharmacokinetic (PK) model was used to select the two lowest doses that can achieve exposure sufficient to inhibit pharmacodynamic targets. Experimental woodchucks were treated with placebo, 2.5 mg/kg, or 5.0 mg/kg sorafenib once daily with a 5 days on and 2 days off schedule. Animals were dosed orally until tumor development. Another experiment was performed with the low (2.5 mg/kg/day) and high (5.0 mg/kg/day) dose groups (n = 3 animals/group) to see the efficacy of short-term (90 days treatment) usage of sorafenib. The primary endpoint of the in vivo study was disease free survival (DFS), and DFS was measured from the date of randomization until the date of any liver tumor detection. The secondary endpoint was tumor size over 2 cm, which was measured from the date of first tumor detection. All experimental protocols were approved by IACUC.

woodchuck T cells = assay: One-way mixed lymphocyte reaction (MLR), woodchuck T cells, CFSE; type: cell-based; settings: woodchuck vs. human MLR, 0–10 µM, dose responsive, 96 h
Method: Flow cytometry acquisition and compensation was performed on a LSR Fortessa (BD Biosciences, San Jose, CA, USA). Analysis of listmode data was performed using Winlist 8.0 (Verity Software House, Inc., Topsham, ME, USA). Briefly, the viable responder lymphocytes were hierarchically gated for single, low side scatter, viable cells with absent CD45 labeling. The percentage of proliferating cells was determined based on CFSE dye dilution compared to the CFSE labeling intensity from the non-proliferating MLR negative control sample. The full list of antibodies and reagents used in assays is available in Table S1.
Mixed lymphocyte reactions were performed in human (human vs. human, Figure 1E) and woodchucks (woodchuck vs. human, Figure 1F). 10 mL peripheral blood from healthy donors and 3 mL woodchuck peripheral blood isolated. Stimulator cells (human cells for both assays) were irradiated at 40 Gy in a Mark I Cesium-137 irradiator for 20 min. Following irradiation, cells were stained for CD45-APC (BD Biosciences, San Jose, CA, USA). Responder cells (non-irradiated human or woodchuck cells) were labeled with CFSE (Thermo Fisher Scientific, Eugene, OR, USA). Target and responder cells were placed in a round bottom 96 well polypropylene plate at a 2:1 ratio in the presence of 0–10 µM sorafenib and incubated at 37 °C for 96 h. […]

[3] = cited from earlier work
[4] = Treatment toxicity in WHV-infected woodchucks (general performance, CBC, biochemistry); type: in vivo, woodchuck (Marmota monax)
Method: General performance statuses of animals were evaluated such as moving activity, appetite, defecation, urination, and weight changes regularly. In addition, CBC and blood biochemistry were measured two times per month during the course of experiment by ProCyte Hematology and Catalyst Chemistry Analyzers (IDEXX, Hoofddorp, The Netherlands).

In the case of CNC(=O)c1cc(Oc2ccc(NC(=O)Nc3ccc(Cl)c(C(F)(F)F)c3)cc2)ccn1 [sorafenib, Sorafenib], the “necrotic change of HCC (H&E)” value (HCC [1]; high dose vs placebo, tumor over 2 cm, p = 0.02) is reported as “significantly large necrotic change”, the “necrotic change of HCC (H&E)” value (HCC [1]; high vs low dose, p = 0.07) is reported as “no statistical difference” and the “CD3+ cell infiltration in tumors” value (HCC [1]; low dose compared to high dose) is reported as “More CD3+ cells”. For the same compound, the “CD3+ cell infiltration in tumors” value (HCC [1]; low dose vs placebo) was “no statistical difference”, the “median time from first detection of tumor to 2 cm HCC” value (HCC [2]; 2.5 mg/kg) was 111 days and the “median time from first detection of tumor to 2 cm HCC” value (HCC [2]; 5 mg/kg) was 42 days. For the same compound, the “median time to tumor development” value (HCC [2]; high dose 5.0 mg/kg/day) was 351 days, the tumor growth delay (HCC [2]; high dose vs placebo, p = 0.5) was “failed to show any tumor growth delay effect” and the “animals that developed HCC” value (HCC [2]; long-term treatment, regardless of doses of sorafenib (15 woodchucks incl. placebo)) was 100%. The “tumor size when first detected by ultrasound” value (HCC [2]; low dose 2.5 mg/kg/day compared to placebo and high dose groups) was “smaller”, the “median time to tumor development” value (HCC [2]; low dose 2.5 mg/kg/day) was 384 days and the tumor growth delay (HCC [2]; low dose vs placebo and high dose, p = 0.024) was “significant tumor growth delay”. For the same compound, the “tumor growth delay with low dose compared to high dose” value (HCC [2]; short-term usage, 90 days, n = 3/group) was “not achieved”, the “prevention of HCC and inhibition of WHV replication” value (HCC [2]; sorafenib treatments compared to placebo) was “did not prevent HCC or inhibit WHV replication” and the “MLR response (T cell proliferation)” value (woodchuck T cells) was “inhibition of the woodchuck MLR response”. For the same compound, the “plasma concentration of sorafenib in clinical trials” value ([3]; clinical trials) was “approximately 2 mg/L”, the “plasma concentration of sorafenib in clinical trials” value ([3]; conversion of 2 mg/L) was 4 µM and the “time to steady-state concentrations” value ([3]; patients, multiple oral dosing) was 7 days. The “general performance change (moving activity, appetite, defecation, urination, weight changes)” value ([4]; 2.5 and 5.0 mg/kg/day oral, all treatment groups) was “not detected” and the “CBC and biochemistry analyses among the three groups” value ([4]; end of experiment, placebo vs 2.5 vs 5.0 mg/kg/day) was “no statistical difference”.
